The record followed here is patent US10143691B2, “Pathogenic control of apoptosis” (CSIR, priority 2014, dated 2018).

Structures are written as SMILES. “Also recorded” adds a separate entry of the source.

The assay has as its system lincRNAp21. The assay can be described thus: lincRNA-p21 expression by RNA FISH spot counts and quantitative RT-PCR. It is filed as cell-based, human. Conditions: uninfected Ghost(3) cells, drug-treated, smFISH spot count and qRT-PCR. The procedure: RNA FISH on Ghost(3) cells was performed according to Raj, 2008 and on primary macrophages according to Schaffer, 2013. For both methods 48 20mer probes (Biosearch) targeted to human lincRNAp21 were synthesised baring a […] C6dT. The amino group was subsequently conjugated to the following NHSester dyes: ATTO565, ATTO647N (ATTOTEC) or Alexa Fluor 647 (Invitrogen). Briefly, oligonucleotide probes were ethanol precipitated and resuspended in 0.1 M sodium tetraborate (Sigma). Approximately 0.3 mg of the NHSester dye (ATTOTEC) was dissolved in dimethyl sulphoxide (Sigma). The dye solution was added to the probe solution and incubated overnight in the dark at 37° C. Following the conjugation reaction, the probes were ethanol precipitated overnight, and resuspended in 0.1 M triethyl ammonium (Sigma). Conjugated probes were separated and purified to enrich for dyeconjugated probes by reverse phase HPLC on a C18 column. […]
For each experiment, Ghost(3) cells or IPSO-derived primary macrophages were infected or treated with 500 nM Doxorubicin over time and total RNA was extracted from cells using TRIzol® (Life Technologies), treated with RQ1 RNase-free DNase (Promega) and reverse transcribed using SuperScript III Reverse Transcriptase (Life Technologies). Quantitative RTPCR was performed using Sso Fast EvaGreen™ supermix (BioRad) on a BioRad CFX96 real-time PCR detection system. […]

Turning to `COc1cccc2c1C(=O)c1c(O)c3c(c(O)c1C2=O)C[C@@](O)(C(=O)CO)C[C@@H]3O[C@H]1C[C@H](N)[C@H](O)[C@H](C)O1` [Doxorubicin], the lincRNA-p21 expression result is “enhanced; also recorded: significantly increases lincRNAp21 expression over time”.
